For orientation: EC50 means the concentration at which the effect is half-maximal.

Here are results for four compounds from patent US5837698A, “Steroid nitrite and nitrate ester derivatives useful as anti-inflammatory drugs” (G. D. Searle & Co., priority 1996, dated 1998).

The test system of assay [1] is prostaglandin E2 (PGE2) synthesis in Human fetal fibroblast cells. Briefly: In vitro inhibition of prostaglandin E2 (PGE2) synthesis assay. In kind it is cell-based. Conditions: IL-1 for 16 hours, compound 10 uM given with IL-1, ELISA, Basal 0.6, IL-1 alone 9.4. The protocol: B. In vitro inhibiton of prostaglandin E2 (PGE2) synthesis assay: Human fetal fibroblast cells were treated with IL-1 for 16 hours and prostaglandin E2 was measured by an ELISA. Compounds were given at the time of addition of IL-1. This assay provides an in vitro assessment of the compound to block the induction of the proinflammatory agent prostaglandin E2 (PGE2): […]
A general note: An ELISA detects its analyte on a solid surface through an enzyme-linked reagent.

Assay [2] concerns rat aortic ring smooth muscle. Briefly: In vitro smooth muscle relaxant activity assay (rat aortic ring) in the presence of Cys and L-NAME. It counts as cell-based. Conditions: for EC50: rat aortic rings precontracted with phenylephrine (0.3 uM), in the presence of cysteine and L-NAME, read-out: Relaxation, EC50. The protocol: The rat aortic ring assay was utilized as a bioassay to measure the relaxant activity. The rings were precontracted with phenylephrine (0.3 uM) and subsequently compounds were added to the tissue bath in the presence of cysteine (Cys) and N^G -L-nitroarginine methyl ester (L-NAME): A.In vitro smooth muscle relaxant activity assay in the presence of Cys and L-NAME: […]

In the case of `CCC(=O)OCC(=O)[C@@]1(OC(=O)CC)[C@@H](C)C[C@H]2[C@@H]3CCC4=CC(=O)C=C[C@]4(C)[C@@]3(Cl)[C@@H](OC(=O)CCC(=O)O[C@H]3CO[C@H]4[C@@H]3OC[C@H]4O[N+](=O)[O-])C[C@@]21C` [Example 1], the PGE2 in assay [1] came out at 0.5 ng. Moreover, the half-maximal effective concentration (EC50) in assay [2] is greater than 10 µM.
In the case of `C[C@]12C=CC(=O)C=C1CC[C@@H]1[C@@H]2[C@@H](O)C[C@@]2(C)[C@H]1CC[C@]2(O)C(=O)COC(=O)CCC(=O)O[C@H]1CO[C@H]2[C@@H]1OC[C@H]2O[N+](=O)[O-]` [Example 21], the PGE2 in assay [1] amounted to 0.4 ng. Further, in assay [2], the EC50 amounted to 3 µM.
`C[C@@H]1C[C@H]2[C@@H]3CCC4=CC(=O)C=C[C@]4(C)[C@@]3(F)[C@@H](O)C[C@]2(C)[C@@]1(O)C(=O)CO` [Dexamethasone, reference compound]: the PGE2 in assay [1] is 0.6 ng.
On to `CCC(=O)OCC(=O)[C@@]1(OC(=O)CC)[C@@H](C)C[C@H]2[C@@H]3CCC4=CC(=O)C=C[C@]4(C)[C@@]3(Cl)[C@@H](O)C[C@@]21C` [Beclomethasone-dipropionate, reference compound], for which the “smooth muscle relaxant activity (in words)” value in assay [2] (rat aortic ring, precontracted with phenylephrine, Cys and L-NAME) was “did not show any effect”. Also, in assay [2], the EC50 came to 100 µM.
